According to patent US20220339138A1, “METHODS AND COMPOSITIONS FOR TREATMENT OF RETT SYNDROME” (ACADIA PHARMACEUTICALS INC., priority 2019, published 2022):
“Also recorded” adds a separate entry of the source. Read-outs that look alike come from different tables or passages of the source. Square brackets hold non-standard residues; d marks the D form. Peptide text beside a SMILES is read from it. αMeP = C[C@@]1(C(=O)O)CCCN1

Experiments:
[1] = clinical; conditions: human, in vivo
Description: These pharmacokinetic results are in agreement with the data obtained previously in healthy subjects and in adolescent and adult RTT patients.
Therefore, the upper levels of exposure in the 200 mg/kg BID dose level were considered to be effective and thus an appropriate target exposure level. Thus, dosing strategies were developed with the aim of providing a minimal target exposure of 800 μg/mL·h, corresponding approximately to the 90-100% AUC quantile of exposure (AUC0-12) observed in the children/adolescents study for the nominal dose of 200 mg/kg BID. With weight-banding, a greater proportion of subjects is expected to achieve the target drug exposure.

[2] = test system: girls and women with RTT; assay: Phase 2 clinical studies of trofinetide in Rett syndrome (efficacy, tolerability); assay type: in vivo, human
Description: Rett syndrome is a devastating disorder for which there is as yet no treatment beyond symptomatic care resulting in a great unmet medical need. […] Exposure-response analyses of RSBQ scores were performed on data from pediatric patients with Rett syndrome with available trofinetide exposure estimates, plus placebo patients. All of the patients included in this analysis had at least 1 RSBQ score measured after trofinetide or placebo dosing. The RSBQ E-R analysis dataset included only the 81 pediatric patients with Rett syndrome. The endpoints used for E-R efficacy modeling include CGI-I scores from two clinical studies and RSBQ scores from one clinical study. The CGI-I scores were measured on Days 5, 14, 17, and 26 and CGI-I scores were measured on Days 21, 28, 42, and 54. All patients received placebo for the first 14 days, so Day 14 was treated as the “true baseline” for trofinetide treatment. The RSBQ scores were collected on Days 14, 28, 42 and 54.

[3] = Population pharmacokinetic model from 9 clinical studies; assay type: in vivo, human; conditions: final population PK model, population mean
Description: Data for the population PK model development of trofinetide came from 5 Phase 1 studies and 4 Phase 2 studies, including patients with Rett syndrome and other diseases. A total of 3058 trofinetide concentration records collected in 290 subjects were available for potential use in the analysis. A blend of full-profile and sparse data from 94 healthy volunteers, 93 patients with Rett syndrome (adult and pediatric), 103 patients with other diseases was available for this analysis.
Key steps for the development of the trofinetide population PK model were: 1) exploratory data analysis; 2) base structural model development via application, re-estimation, and refinement of a population PK model using pooled data from 9 clinical studies; 3) evaluation of covariate effects using forward selection; 4) full multivariable model evaluation: 5) backward elimination of covariates; 6) final model refinement; and 7) model evaluation. The continuous covariates evaluated included age, body weight, body mass index (BMI), estimated glomerular filtration rate, total bilirubin, alanine aminotransferase, and aspartate aminotransferase. The only categorical covariate evaluated was a combination of sex and disease state (SEXDS), where: SEXDS=0 for male healthy volunteers, SEXDS=1 for female healthy volunteers, SEXDS=2 for patients with Rett (female only), SEXDS=3 for patients with other disease A (male only), SEXDS=4 for male patients with other disease B, and SEXDS=5 for female patients with other disease B. The covariate analysis used a standard forward selection-backward elimination method to identify statistically significant (α=0.001) predictors of PK variability that also explained a sufficient proportion of interindividual variability (IIV) for the respective PK parameter upon which they were tested (that is, reducing IV by ≥5%). The final PK model was validated using a simulation-based, prediction-corrected visual predictive check (pcVPC) methodology to assess concordance between the model-based simulated data and the observed data.
A total of 2759 trofinetide plasma concentrations in 281 subjects were used in the development of the population PK model. The analysis dataset comprised subjects with a median (range) age of 22 (5 to 64) years and a median (range) body weight of 65.6 (15.1 to 139.6) kg, with 52.8% of the analysis population being male and 47.2% female.
The final population PK model for trofinetide was a 2-compartment model with first-order absorption, linear elimination, and 2 separate exponential error models for healthy volunteers and patients. The model included separate bioavailability terms for oral dosing (relative bioavailability [F1]) and dosing via gastric tube (F1G). Interindividual variability was estimated for first-order absorption (ka), clearance (CL), central volume of distribution (Vc), peripheral volume of distribution (Vp), and intercompartmental clearance (Q) using exponential error models.
A total of 4 covariate-parameter relationships were included in the final population PK model. […] Therefore, the final PK model included body weight as a significant predictor of both CL (as a power function) and Vc (as a power function), and SEXDS as a significant predictor of both CL (as a proportional function) and Vc (as a proportional function).

[4] = test system: patients with Rett syndrome; assay: CGI-I exposure-response model; set-up: species or system human; conditions: refined population PK and E-R models
Description: Exposure-response analyses of the CGI-I scores were performed on data from patients with Rett syndrome with available trofinetide exposure estimates, plus placebo patients. All of the patients included in this analysis had at least 1 CGI-I score measured after trofinetide or placebo dosing. Data from 52 adult patients with Rett syndrome and 81 pediatric patients with Rett syndrome were pooled for this analysis.
The endpoints used for E-R efficacy modeling include CGI-I scores from two clinical studies and RSBQ scores from one clinical study. The CGI-I scores were measured on Days 5, 14, 17, and 26 and CGI-I scores were measured on Days 21, 28, 42, and 54. All patients received placebo for the first 14 days, so Day 14 was treated as the “true baseline” for trofinetide treatment. The RSBQ scores were collected on Days 14, 28, 42 and 54.
The overall procedures followed for the development of the E-R models for CGI-I and RSBQ scores were: 1) generation of individual estimates of exposure based on the population PK model; 2) exploratory data analysis; 3) base structural model development incorporating drug exposure effects; 4) evaluation of covariate effects, 5) final model refinement; and 6) model evaluation. Covariates evaluated in the analysis of efficacy endpoints were age, body weight, and BMI. […]

[5] = following oral administration; cited from earlier work
[6] = cited from earlier work
[7] = test system: MeCP2 mutant mice; conditions: MeCP2 mutant mice (Tropea et al. 2009); cited from earlier work
[8] = test system: children with Rett syndrome 2 to 10 years of age; conditions: Phase 2 trial (O'Leary et al. 2018); cited from earlier work
[9] = 50 mg/kg BID, pediatric RTT patients
[10] = 100 mg/kg BID, pediatric RTT patients
[11] = 200 mg/kg BID, pediatric RTT patients

With `C[C@@]1(C(=O)N[C@@H](CCC(=O)O)C(=O)O)CCCN1C(=O)CN` [trofinetide, (2S)-2-[[(2S)-1-(2-aminoacetyl)-2-methylpyrrolidine-2-carbonyl]amino]pentanedioic acid] (H-Gly-[αMeP]-Glu-OH) the “effect of body weight on clearance and central volume of distribution” value [1] was “significant effect”, the AUC(0-t) ([1]; 200 mg/kg) was at least 790 µg·h/mL and the “clinical efficacy versus placebo” value ([2]; 200 mg/kg BID, Phase 2) was “evidence of clinical efficacy; also recorded: benefit compared to placebo”. The “median percent change in RSBQ scores from baseline” value ([2]; 200 mg/kg twice daily (BID), over 54 days, pediatric patients with Rett syndrome) was −14.4%, the “PK/PD relationship (exposure versus RSBQ, RTT-DSC, CGI-I)” value ([2]; exploratory analyses, Phase 2) was “positive PK/PD relationship” and the tolerability ([2]; two studies in girls and women with RTT) was “well tolerated”. It also gave a bioavailability ([3]; both sexes, human, plasma, other: gastric tube, read-out: F1G: Gastric Tube Bioavailability) of 84.7%, a bioavailability ([3]; both sexes, human, plasma, po, read-out: F1: Oral Bioavailability) of 77% and a clearance ([3]; both sexes, human, plasma, read-out: CL: Central Clearance (converted)) of 192 mL/min. For the same compound, the “Q: Distribution Clearance” value [3] was 1.02 L/h, the “Vc: Central Volume” value [3] was 22.2 L and the “Vc: Exponent of (WTKG/65) for Vc” value [3] was 0.770. For the same compound, the “Vc: Proportional Shift in Vc for Rett = 1” value [3] was −0.562, the “Vc: Proportional Shift in Vc for disease B = 1” value [3] was −0.374 and the “Vp: Peripheral Volume” value [3] was 53.0 L. For the same compound, the “ka: First-Order Absorption Rate Constant” value [3] was 0.195 h⁻¹, the “association of higher trofinetide exposure with improvement in Rett syndrome (CGI-I and RSBQ scores) compared to placebo” value [4] was “greater improvement” and the blood-brain barrier passage [5] was “crosses the blood-brain barrier”. For the same compound, the “median AUC(0-12ss)” value [6, 9] was 139.4 µg·h/mL, the “median Cmax” value [6, 9] was 17.7 µg/mL and the “median AUC(0-12ss)” value [6, 10] was 338.6 µg·h/mL. The “median Cmax” value [6, 10] was 52.6 µg/mL, the “median AUC(0-12ss)” value [6, 11] was 505.1 µg·h/mL and the “median Cmax” value [6, 11] was 82.2 µg/mL. For the same compound, the “accumulation, metabolic inhibition, or induction during treatment” value ([6]; Phase 2 studies) was “no accumulation, metabolic inhibition, or induction” and the “pharmacokinetics across the dose range tested” value ([6]; pediatric RTT patients) was “linear pharmacokinetics”.

In the case of glycine-proline-glutamate [GPE], the “effect on Rett-like symptoms” value [7] is given as “reversed Rett-like symptoms”.

For “mecasermin: recombinant human IGF-1, a compound related to trofinetide”, the “CSBS-DP-IT, active treatment group compared to placebo” value [8] is given as “evidence of benefit”.
